Series [1] is described as follows: physchem.
Series [2] is described as follows: pKa by continuous titration, apparatus of FIG. 8, optimised buffers, TFA or 1st derivative data processing. The settings on record: for pKa (1st Deriv.): first derivative method.
The conditions of series [3]: test solutes; potentiometric titration on Sirius PCA 101 instrument in 0.15 KCl.
Protocol: (§1) The absorbance changes at 240 nm, 265 nm, 290 nm and 315 nm were recorded and the peak maxima of the 1st derivative plots determined. […] Compounds of known pKa were also determined as test solutes.
Series [4] in a line: pKa by continuous titration, linear pH gradient, apparatus of FIG. 2, 1st derivative peak time read from standards calibration curve. The class given is physicochemical. The following applies: from standards calibration curve via time to peak maximum of 1st derivative, gradient over 4 minutes, FIG. 2 apparatus. How it is done: The following pKa determination experiment was performed on this apparatus.
The two buffers have a common component to which an acidic component is added to form buffer A and a basic component is added to form buffer B. The buffers were made up as follows:
The sample solution was kept constant at 20%. The HP1050 pump was used again with buffer B introduced via channel B and buffer A via channel C. The flow rate of the test mixture stream from the mixer to the detector was 1 cm^3 min^−1.
The calibration results are set out below: Time to peak maximum is from the start of the instrument cycle (when the autosampler first goes into a new sample container).

A short description of series [5]: physchem. The source holds these as a separate data set.
Protocol: as §1
The conditions of series [6]: cited from earlier work.
The conditions of series [7]: Albert & Serjeant, 1984; corrected for an ionic strength of 0.15 M; cited from earlier work.
Setting [8] is: run with calibration curve pH=−0.022×time+12.66.

Several values for one entry are separate records, joined by “and”; a condition that tells them apart may be missing. Identical values can stand only once. Marks after values point to notes of the source that are not given here.

Broadly, the pKa is the pH at which an ionisable group is half protonated. The compound `NCCCn1ccnc1` [1-(3-Aminopropyl)imidazole, 1-(3-Aminopropyl) imidazole] gave a pKa in series [1] of 5.73 ± 0.08. For the same compound, the “pKa (1st Deriv.)” value in series [2] (setting [8]) stood at 5.81 ± 0.40.

Take `Oc1ccccc1Cl` [2-Cl phenol]: the “Known pKa” value in series [3] is given as 8.24. Further, the “pKa Derived” value in series [4] is 8.15 and 8.16.

`Nc1cccc(C(=O)O)c1` [3-Aminobenzoic acid] had a pKa in series [1] of 3.39 ± 0.08.

On to `Oc1cccc(Cl)c1` [3-Cl phenol], for which the “Known pKa” value in series [3] turned out to be 8.81. For the same compound, the “pKa Derived” value in series [4] is 8.79 and 8.78.

Regarding `N#Cc1ccc(O)cc1` [4-CN phenol], the “Known pKa” value in series [3] was determined as 7.7. Moreover, in series [4], the “pKa Derived” value is 7.62 and 7.58.

Take `Oc1ccc(Cl)cc1` [4-Cl phenol, 4-Chlorophenol]: the pKa in series [1] worked out at 9.03 ± 0.03; in series [5] (0.15 KCl solution), 9.14; in series [4] (buffered linear pH gradient (apparatus of FIG. 2), read-out: pKa Derived), 9.14. For the same compound, the “pKa (1st Deriv.)” value in series [2] (run with calibration curve pH=−0.021×time+12.49) is 9.16 ± 0.08; in series [2] (setting [8]), 9.25 ± 0.07. In series [2] (run with calibration curve pH=−0.022×time+12.66, target factor analysis), the “pKa (TFA)” value is 9.04 ± 0.01. Further, the “pKa Derived” value in series [4] is on record as 9.13.

Consider `O=[N+]([O-])c1ccc(O)cc1` [4-NO2phenol, p-nitrophenol], for which the “pKa (Standard Curve)” value in series [6] (standards STD1, STD2 of Example 3) is on record as 6.869. In addition, the “pKa (calibration standards)” value in series [6] (standards for calibration curves of the FIG. 8 runs) is given as 6.869. The same compound displayed a pKa in series [5] (0.15 KCl solution) of 6.89.

Regarding `NCc1ccccc1` [Benzylamine], the “pKa (lit. data)” value in series [7] is reported as 9.34^a. Moreover, the pKa in series [1] is 9.23 ± 0.1.

In series [1], `O=C1OC(c2ccc(O)cc2)(c2ccc(O)cc2)c2ccccc21` [Phenolphthalein] gave a pKa of 8.84 ± 0.05.

For the compound `O=C(O)Cc1ccccc1` [Phenylacetic acid], the “pKa (lit. data)” value in series [7] is 4.07^b. The compound further gave a pKa in series [1] of 4.34 ± 0.01.

Regarding `NCCc1ccccc1` [Phenylethylamine], the pKa in series [1] amounted to 9.64 ± 0.07.

Consider `NCCc1c[nH]c2ccc(O)cc12` [Serotonin], for which the “pKa (lit. data)” value in series [7] is 9.80^a and 10.04^a. Besides, the pKa in series [1] came out at 10.09 ± 0.03. The “pKa (1st Deriv.)” value in series [2] (setting [8]) is reported as 10.03 ± 0.08.

`CC(C)NCC(O)c1ccc(NS(C)(=O)=O)cc1` (centres unmarked) [Sotalol] displayed a pKa in series [1] of 7.96 ± 0.03.

As to `O=C(O)/C=C/c1ccccc1` [Trans-cinnamic acid], the “pKa (lit. data)” value in series [7] is given as 4.20^b. In series [1], this compound registered a pKa of 4.15 ± 0.01.

On to `O=C(O)C/C=C/c1ccccc1` [Trans-styrylacetic acid], for which the pKa in series [1] was determined as 4.57 ± 0.05.

`NCCc1c[nH]c2ccccc12` [Tryptamine] registered a pKa in series [1] of 9.67 ± 0.03. Besides, in series [2] (setting [8]), the “pKa (1st Deriv.)” value amounted to 10.05 ± 0.10.

`O=C(O)c1ccccc1C(=O)O` [phthalate 1, potassium hydrogen phthalate] gave a pKa in series [5] of 4.82.

The record behind these values is US6913930B2, “Analytical method and apparatus therefor involving continuous titration” (Glaxo Wellcome Inc., priority 1997, dated 2005).
